Measured values reported in article PMC1968247 (British Journal of Cancer, 1993).
Several values for one entry are separate records, joined by “and”; a condition that tells them apart may be missing. Equal entries are not always repeated. Where two headings read alike, the source gives them in different places.

Assays:
MAC 15A = experiment: In vitro chemosensitivity, MTT assay; format: cell-based, murine; details: area under decay curve of the IC50 over the MTT assay
Experimental: (§1) Br. J. Cancer (1993), 67, 441 446 t? […] Bibby Clinical Oncology Unit, University of Bradford, West Yorkshire, BD7 JDP, UK. […] In vivo anti-tumour activity was examined against three transplantable adenocarcinomas of the mouse colon and in vivo bone marrow toxicity was assessed using a spleen colony forming unit assay. The pharmacokinetic behaviour of the drug in vivo and drug stability in vitro was analysed by gas chromatography with electron capture detection. […] Clinical responses to cytotoxic agents have been largely restricted to the haematological malignancies while the majority of human solid tumours have remained refractory to chemotherapy (Marsoni et al., 1987). […] However, their clinical usefulness has been limited by non-selective host toxicity, particularly myelosuppres- sion. The chloroethylnitrosoureas decompose spontaneously in aqueous solution to generate reactive intermediates that are capable of alkylating and carbamoylating nucleophilic targets (Cheng et al., 1972). Alkylation reactions consist of chloroethylations and hydroxyethylations of DNA (Tong et al., 1982). Chloroethylation of 06-guanine with subsequent cross-link formation is considered to be the most important cytotoxic reaction (Lown et al., 1978) while hydroxyethyla- tion reactions are thought to be responsible for their mutagenic and carcinogenic effects (Pelfrene et al., 1976; Swenson et al., 1979). […] In the search for other types of compound that would chloroethylate DNA, a series of 2-haloethylsulphonates was synthesised (Shealy et al., 1983). […] Recently, the NCI has introduced a new disease-orientated screening programme based on the assessment of the in vitro cytotoxicity of a panel of cell lines representing the common clinical forms of human cancers using a colorimetric assay (Boyd, 1989). […] One reason for this discrepancy is that the in vitro tests ignore the potential role played by the pharmacokinetic behaviour and bioavailability of a drug in determining tumour responses in vivo. […] It has been used extensively as part of the pre-clinical evaluation of new anti-cancer agents within the Screening and Pharmacology Group of the EORTC (Bibby et al., 1988b). The feasibility of performing minimal toxicity studies in conjunction with anti-tumour studies has been described (Bibby et al., 1988b). […] Correspondence: A.M. Matthew. Received 6 December 1991; and in revised form 13 October 1992. Br. J. Cancer (1993), 67, 441-446 '?" Macmillan Press Ltd., 1993 442 A.M. MATIHEW et al. ethylating agents with improved therapeutic indices. The assessment of stem cell survival has been recommended to study irreversible cytotoxic bone marrow injury (Schofield, 1986) and this can be performed readily in mice using a spleen colony forming unit assay. […] In vitro activity was assessed against a panel of established murine and human tumour cell lines while in vivo anti-tumour responses were evaluated against an ascitic tumour, MAC 15A, and two solid subcutaneous (sc) tumours, MAC 13 and MAC 26. MAC 13 is relatively nitrosourea-sensitive due to a low level of the repair enzyme 06-alkylguanine-DNA alkyltransferase while MAC 26 is relatively nitrosourea-resistant due to a high repair enzyme level (Lunn et al., 1989). […] Chemosensitivity testing In vitro chemosensitivity was assessed using a modified micro-tetrazolium (MTT) assay (Twenty- man & Luscombe, 1987).

WEHI-3B = experiment: In vitro chemosensitivity, MTT assay; format: cell-based, murine; details: area under decay curve of the IC50 over the MTT assay
Experimental: as §1

MAC 26 = experiment: In vitro chemosensitivity, MTT assay; format: cell-based, murine
Experimental: as §1

MAC 16 = experiment: In vitro chemosensitivity, MTT assay; format: cell-based, murine; details: area under decay curve of the IC50 over the MTT assay
Experimental: as §1

P388 leukaemia = system: P388 leukaemia; set-up: method as in Shealy et al., 1984; details: ref Shealy et al., 1984; cited from earlier work
[1] = Maximum tolerated dose, full dose range to the point of toxicity; details: ip, mice
Experimental: (§2) Br. J. Cancer (1993), 67, 441 446 t? […] Bibby Clinical Oncology Unit, University of Bradford, West Yorkshire, BD7 JDP, UK. […] In vivo anti-tumour activity was examined against three transplantable adenocarcinomas of the mouse colon and in vivo bone marrow toxicity was assessed using a spleen colony forming unit assay. The pharmacokinetic behaviour of the drug in vivo and drug stability in vitro was analysed by gas chromatography with electron capture detection. […] Clinical responses to cytotoxic agents have been largely restricted to the haematological malignancies while the majority of human solid tumours have remained refractory to chemotherapy (Marsoni et al., 1987). […] However, their clinical usefulness has been limited by non-selective host toxicity, particularly myelosuppres- sion. The chloroethylnitrosoureas decompose spontaneously in aqueous solution to generate reactive intermediates that are capable of alkylating and carbamoylating nucleophilic targets (Cheng et al., 1972). Alkylation reactions consist of chloroethylations and hydroxyethylations of DNA (Tong et al., 1982). Chloroethylation of 06-guanine with subsequent cross-link formation is considered to be the most important cytotoxic reaction (Lown et al., 1978) while hydroxyethyla- tion reactions are thought to be responsible for their mutagenic and carcinogenic effects (Pelfrene et al., 1976; Swenson et al., 1979). […] The assessment of stem cell survival has been recommended to study irreversible cytotoxic bone marrow injury (Schofield, 1986) and this can be performed readily in mice using a spleen colony forming unit assay. […] In vitro activity was assessed against a panel of established murine and human tumour cell lines while in vivo anti-tumour responses were evaluated against an ascitic tumour, MAC 15A, and two solid subcutaneous (sc) tumours, MAC 13 and MAC 26. […] Chemosensitivity testing In vitro chemosensitivity was assessed using a modified micro-tetrazolium (MTT) assay (Twenty- man & Luscombe, 1987).

MAC 15A ascites tumour = experiment: Anti-tumour activity against MAC 15A (median survival time); format: in vivo, NMRI mice
Experimental: (§3) Br. J. Cancer (1993), 67, 441 446 t? […] Bibby Clinical Oncology Unit, University of Bradford, West Yorkshire, BD7 JDP, UK. […] In vivo anti-tumour activity was examined against three transplantable adenocarcinomas of the mouse colon and in vivo bone marrow toxicity was assessed using a spleen colony forming unit assay. The pharmacokinetic behaviour of the drug in vivo and drug stability in vitro was analysed by gas chromatography with electron capture detection. […] Clinical responses to cytotoxic agents have been largely restricted to the haematological malignancies while the majority of human solid tumours have remained refractory to chemotherapy (Marsoni et al., 1987). […] However, their clinical usefulness has been limited by non-selective host toxicity, particularly myelosuppres- sion. The chloroethylnitrosoureas decompose spontaneously in aqueous solution to generate reactive intermediates that are capable of alkylating and carbamoylating nucleophilic targets (Cheng et al., 1972). Alkylation reactions consist of chloroethylations and hydroxyethylations of DNA (Tong et al., 1982). Chloroethylation of 06-guanine with subsequent cross-link formation is considered to be the most important cytotoxic reaction (Lown et al., 1978) while hydroxyethyla- tion reactions are thought to be responsible for their mutagenic and carcinogenic effects (Pelfrene et al., 1976; Swenson et al., 1979). […] In the search for other types of compound that would chloroethylate DNA, a series of 2-haloethylsulphonates was synthesised (Shealy et al., 1983). […] Recently, the NCI has introduced a new disease-orientated screening programme based on the assessment of the in vitro cytotoxicity of a panel of cell lines representing the common clinical forms of human cancers using a colorimetric assay (Boyd, 1989). […] One reason for this discrepancy is that the in vitro tests ignore the potential role played by the pharmacokinetic behaviour and bioavailability of a drug in determining tumour responses in vivo. […] It has been used extensively as part of the pre-clinical evaluation of new anti-cancer agents within the Screening and Pharmacology Group of the EORTC (Bibby et al., 1988b). The feasibility of performing minimal toxicity studies in conjunction with anti-tumour studies has been described (Bibby et al., 1988b). […] Correspondence: A.M. Matthew. Received 6 December 1991; and in revised form 13 October 1992. Br. J. Cancer (1993), 67, 441-446 '?" Macmillan Press Ltd., 1993 442 A.M. MATIHEW et al. ethylating agents with improved therapeutic indices. The assessment of stem cell survival has been recommended to study irreversible cytotoxic bone marrow injury (Schofield, 1986) and this can be performed readily in mice using a spleen colony forming unit assay. […] In vitro activity was assessed against a panel of established murine and human tumour cell lines while in vivo anti-tumour responses were evaluated against an ascitic tumour, MAC 15A, and two solid subcutaneous (sc) tumours, MAC 13 and MAC 26. MAC 13 is relatively nitrosourea-sensitive due to a low level of the repair enzyme 06-alkylguanine-DNA alkyltransferase while MAC 26 is relatively nitrosourea-resistant due to a high repair enzyme level (Lunn et al., 1989). In vivo bone marrow toxicity and pharmacokinetic studies and in vitro drug stability studies were performed in conjunction with the anti-tumour studies. […] Chlorozotocin was dissolved in 10% dimethylsulphoxide (DMSO)/arachis oil. Drug solutions were prepared at an appropriate concentration for the desired in vivo dose to be administered in 0.1 ml per 10 g body weight by intra- peritoneal (ip) or intravenous (iv) injection and for the desired final concentration in vitro to be achieved upon a 1 in 10 dilution. […] Chemosensitivity testing In vitro chemosensitivity was assessed using a modified micro-tetrazolium (MTT) assay (Twenty- man & Luscombe, 1987).

[2] = In vitro stability in complete RPMI 1640 tissue culture medium; format: in vitro ADME; details: complete RPMI 1640 medium, 37 C, initial 10 ug/ml
Experimental: as §2, with “sion.” for “sion. The chloroethylnitrosoureas decompose spontaneously in aqueous solution to generate reactive intermediates that are capable of alkylating and carbamoylating nucleophilic targets (Cheng et al., 1972). Alkylation reactions consist of chloroethylations and hydroxyethylations of DNA (Tong et al., 1982). Chloroethylation of 06-guanine with subsequent cross-link formation is considered to be the most important cytotoxic reaction (Lown et al., 1978) while hydroxyethyla- tion reactions are thought to be responsible for their mutagenic and carcinogenic effects (Pelfrene et al., 1976; Swenson et al., 1979).”

[3] = Pharmacokinetic study, plasma Clomesone by gas chromatography; details: 50 mg kg-1 ip
Experimental: as §3

[4] = set-up: method as in Chan & Barrientos, 1988; details: previously reported; ref Chan & Barrientos, 1988; cited from earlier work
bone marrow = details: for Survival fraction: 24 h
Experimental: as §3

MAC 26 tumours = details: for Tumour growth delay: MAC 26; for Survivors: MAC 26 bearers
Experimental: as §3

MAC 13 tumours = experiment: Anti-tumour activity against MAC 13 (tumour weight); format: in vivo, NMRI mice
Experimental: as §3

HCT-18 = experiment: In vitro chemosensitivity, MTT assay; format: cell-based, human
Experimental: as §3

DLD-1 = experiment: In vitro chemosensitivity, MTT assay; format: cell-based, human
Experimental: as §3

K562 = experiment: In vitro chemosensitivity, MTT assay; format: cell-based, human; details: area under decay curve of the IC50 over the MTT assay
Experimental: as §3

HT-29 = experiment: In vitro chemosensitivity, MTT assay; format: cell-based, human
Experimental: as §3

HCLO = experiment: In vitro chemosensitivity, MTT assay; format: cell-based, human; details: area under decay curve of the IC50 over the MTT assay
Experimental: as §3

HRT-18 = experiment: In vitro chemosensitivity, MTT assay; format: cell-based, human
Experimental: as §3

[5] = area under decay curve of the IC50 over the MTT assay

## CS(=O)(=O)CS(=O)(=O)OCCCl [Clomesone, 2-chloroethyl(methylsulphonyl)methanesulphonate]
MAC 15A
  c x t (concentration-time product): 54 fig h ml- '
WEHI-3B
  c x t (concentration-time product): 150 fig h ml- '
MAC 26; MTT, 4 days, one experiment only
  IC50: 35 igm9l-'
MAC 26; [5]
  c x t (concentration-time product): 185 fig h ml- '
MAC 16
  c x t (concentration-time product): 177 fig h ml- '
P388 leukaemia
  Activity against P388 leukaemia in vivo (in words): highly effective
[1]
  Maximum tolerated dose: 100 mg kg-'
MAC 15A ascites tumour; 12.5 mg kg-1 ip
  T/C%: 88%
MAC 15A ascites tumour; 12.5 mg kg-1 iv
  T/C%: 100%
MAC 15A ascites tumour; 25 mg kg-1 ip
  T/C%: 138%
MAC 15A ascites tumour; 25 mg kg-1 iv
  T/C%: 100%
MAC 15A ascites tumour; 50 mg kg-1 ip
  T/C%: 163%
MAC 15A ascites tumour; 50 mg kg-1 iv
  T/C%: 125%
MAC 15A ascites tumour; 100 mg kg-1 ip, median survival time treated/control
  T/C%: 133% and 163%
[2]
  1st order rate constant (k) of degradation: 0.205
  t1/2 in tissue culture medium: 203 min
[3]
  Time to peak plasma levels: ≤ 2 min
  area under the plasma concentration versus time curve, mean value: 6.77 .ghmlh'
  areas under the plasma concentration versus time curves, range: 5.70-8.04 lagh ml-'
[3]; female non-tumour bearing mice, three experiments
  Peak plasma levels, mean value: 28.0 ggmlh'
[3]; plasma
  mean terminal half-life: 8.1 min
  terminal half-life, range: 4.8 to 10.8 min
[3]; three experiments
  Peak plasma levels, range: 18.1-35.9 jigml-'
[4]
  t1/2 in mouse plasma: 51 min
Bone marrow; 25 mg kg-1 ip
  Survival fraction: 0.80
Bone marrow; 50 mg kg-1 ip
  Survival fraction: 0.59
Bone marrow; 100 mg kg-1 ip, colonies observed vs expected
  Survival fraction: 0.20 and 0.16
Bone marrow; maximum tolerated dose of 100 mg kg-1 ip
  reduction in colony forming units: 5 fold
MAC 26 tumours; 25 mg kg-1 ip
  Tumour growth delay: 0 days
  Survivors: 10/10
MAC 26 tumours; 50 mg kg-1 ip
  Tumour growth delay: 0.8 days
  Survivors: 10/10
MAC 26 tumours; 100 mg kg-1 ip
  Tumour growth delay: 0.8 days
  Survivors: 10/10
MAC 26 tumours; 150 mg kg-1 ip
  Survivors: 0/10
MAC 26 tumours; 200 mg kg-1 ip
  Survivors: 0/10
MAC 13 tumours; 12.5 mg kg-1 ip
  % Tumour weight inhibition: 21.6%
MAC 13 tumours; 12.5 mg kg-1 iv
  % Tumour weight inhibition: 45.9%
MAC 13 tumours; 25 mg kg-1 ip
  % Tumour weight inhibition: 13.5%
MAC 13 tumours; 25 mg kg-1 iv
  % Tumour weight inhibition: 21.6%
MAC 13 tumours; 50 mg kg-1 iv
  % Tumour weight inhibition: 47.3%
MAC 13 tumours; 100 mg kg-1 ip, assessed 17 days later
  % Tumour weight inhibition: 48.3%
HCT-18; MTT, 4 days, n = 4
  IC50: > 100 igm9l-'
HCT-18; [5]
  c x t (concentration-time product): > 528 fig h ml- '
DLD-1; MTT, 4 days, n = 4
  IC50: > 100 igm9l-'
DLD-1; [5]
  c x t (concentration-time product): > 528 fig h ml- '
K562
  c x t (concentration-time product): 207 fig h ml- '
HT-29; MTT, 4 days, n = 4
  IC50: > 100 igm9l-'
HT-29; [5]
  c x t (concentration-time product): > 528 fig h ml- '
HCLO
  c x t (concentration-time product): 146 fig h ml- '
HRT-18; MTT, 4 days, n = 4
  IC50: > 100 igm9l-'
HRT-18; [5]
  c x t (concentration-time product): > 528 fig h ml- '
